Biological target: T1, Recombinant (1-346) HPK1 (h) (Homo sapiens, UniProt Q92918)
T1 construct: Recombinant (1-346) HPK1 (h) is incubated with 8 mM MOPS pH 7.0
T1 sequence (Q92918 1-346): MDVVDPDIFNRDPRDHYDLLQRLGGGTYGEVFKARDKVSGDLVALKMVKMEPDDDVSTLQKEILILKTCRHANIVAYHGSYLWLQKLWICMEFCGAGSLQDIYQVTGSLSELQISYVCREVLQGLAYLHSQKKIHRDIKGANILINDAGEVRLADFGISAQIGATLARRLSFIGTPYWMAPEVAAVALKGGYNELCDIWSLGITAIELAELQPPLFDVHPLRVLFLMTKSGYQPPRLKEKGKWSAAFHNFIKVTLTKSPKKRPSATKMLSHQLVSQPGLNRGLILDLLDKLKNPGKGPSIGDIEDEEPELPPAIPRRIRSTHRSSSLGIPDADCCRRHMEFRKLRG
Experiment: HPK1 human STE kinase enzymatic radiometric assay
Type: biochemical
Details: read-out: HPK1 IC50 nM Range
Method in brief: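 Compounds in 3-fold, 9-point serial dilution; kinase (residues 1-346) phosphorylates myelin basic protein (0.33 mg/mL) using [gamma-33P]-ATP at pH 7.0 (MOPS, EDTA, Mg acetate) for 40 min, room temperature. Acid-quenched mixture filtered onto P30 mats; incorporated radioactivity read by scintillation counting.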

Row | SMILES | IC50 [nM]
1 | Nc1nc(F)c(-c2ccc(N3CCOCC3)c(CN3CCCCC3)c2)nc1-c1ccc2c(c1)CCNC2=O [Example I-185, 6-(3-amino-5-fluoro-6-(4-morpholino-3-(piperidin-1-ylmethyl)phenyl)pyrazin-2-yl)-3,4-dihydroisoquinolin-1(2H)-one] | 11 to 100
2 | COCCN(C)Cc1cc(-c2nc(-c3ccc4c(c3)CCNC4=O)c(N)nc2F)ccc1N1CCOCC1 [Example I-160, 6-(3-amino-5-fluoro-6-(3-(((2-methoxyethyl)(methyl)amino)methyl)-4-morpholinophenyl)pyrazin-2-yl)-3,4-dihydroisoquinolin-1(2H)-one] | 0.1 to 10
3 | C[C@H]1CN(c2ccc(-c3nc(-c4cc5c(cc4F)C(=O)NCC5)c(N)nc3F)cc2CN(C)C)CCO1 [Example I-212, (S)-6-(3-amino-6-(3-((dimethylamino)methyl)-4-(2-methylmorpholino)phenyl)-5-fluoropyrazin-2-yl)-7-fluoro-3,4-dihydroisoquinolin-1(2H)-one] | 0.1 to 10
4 | C[C@H]1CN(c2ccc(-c3nc(-c4cc(F)c5c(c4)CCNC5=O)c(N)nc3F)cc2CN(C)C)CCO1 [Example I-213, (S)-6-(3-amino-6-(3-((dimethylamino)methyl)-4-(2-methylmorpholino)phenyl)-5-fluoropyrazin-2-yl)-8-fluoro-3,4-dihydroisoquinolin-1(2H)-one] | 0.1 to 10
5 | Cc1nc2cc(-c3nc(-c4ccc(N5C[C@@H](C)O[C@@H](C)C5)c(CN(C)C)c4)c(F)nc3N)cc(F)c2c(=O)[nH]1 [Example I-196, 7-(3-amino-6-(3-((dimethylamino)methyl)-4-((2R,6S)-2,6-dimethylmorpholino)phenyl)-5-fluoropyrazin-2-yl)-5-fluoro-2-methylquinazolin-4(3H)-one] | 11 to 100
6 | CC1NC(=O)c2c(F)cc(-c3nc(-c4ccc([C@]56C[C@H]5CN(C)C6)cc4)c(F)nc3N)cc2C1(F)F (stereo partly drawn) [Example I-135, 6-(3-amino-5-fluoro-6-(4-((1S,5R)-3-methyl-3-azabicyclo[3.1.0]hexan-1-yl)phenyl)pyrazin-2-yl)-4,4,8-trifluoro-3-methyl-3,4-dihydroisoquinolin-1(2H)-one] | 11 to 100
7 | Cc1[nH]c(=O)c2ccc(-c3nc(-c4ccc(N5CCN(CC6CC6)CC5)cc4)c(F)nc3N)cc2c1F [Example I-106, 6-(3-amino-6-(4-(4-(cyclopropylmethyl)piperazin-1-yl)phenyl)-5-fluoropyrazin-2-yl)-4-fluoro-3-methylisoquinolin-1(2H)-one] | 0.1 to 10
8 | CC1NC(=O)c2c(F)cc(-c3nc(-c4ccc(N5CCN(C6CCC6)CC5)cc4)c(F)nc3N)cc2C1(F)F (stereo not drawn) [Example I-150, 6-(3-amino-6-(4-(4-cyclobutylpiperazin-1-yl)phenyl)-5-fluoropyrazin-2-yl)-4,4,8-trifluoro-3-methyl-3,4-dihydroisoquinolin-1(2H)-one] | 11 to 100
9 | Cc1[nH]c(=O)c2c(F)cc(-c3nc(-c4ccc(N5CCN(CC6CC6)CC5)cc4)c(F)nc3N)cc2c1Cl [Example I-107, 6-(3-amino-6-(4-(4-(cyclopropylmethyl)piperazin-1-yl)phenyl)-5-fluoropyrazin-2-yl)-4-chloro-8-fluoro-3-methylisoquinolin-1(2H)-one] | 0.1 to 10
10 | C[C@@H]1CCCN1Cc1cc(-c2nc(-c3ccc4c(=O)[nH]cc(F)c4c3)c(N)nc2F)ccc1C1CCOCC1 [Example I-226, (R)-6-(3-amino-5-fluoro-6-(3-((2-tmethylpyrrolidin-1-yl)methyl)-4-(tetrahydro-2H-pyran-4-yl)phenyl)pyrazin-2-yl)-4-fluoroisoquinolin-1(2H)-one] | 0.1 to 10
11 | Nc1nc(F)c(-c2ccc(N3CCN(C4CCC4)CC3)cc2)nc1-c1cc(F)c2c(c1)CCNC2=O [Example I-47, 6-(3-amino-6-(4-(4-cyclobutylpiperazin-1-yl)phenyl)-5-fluoropyrazin-2-yl)-8-fluoro-3,4-dihydroisoquinolin-1(2H)-one] | 0.1 to 10

Other lines, results leading:

Row | IC50 [nM] | SMILES
12 | 0.1 to 10 | C[C@H]1CCCN1Cc1cc(-c2nc(-c3ccc4c(=O)[nH]cc(F)c4c3)c(N)nc2F)ccc1C1CCOCC1 [Example I-228, (S)-6-(3-amino-5-fluoro-6-(3-((2-methylpyrrolidin-1-yl)methyl)-4-(tetrahydro-2H-pyran-4-yl)phenyl)pyrazin-2-yl)-4-fluoroisoquinolin-1(2H)-one]
13 | 11 to 100 | CCN(C)Cc1c(N2CCOCC2)ccc(-c2nc(-c3cc4c(cc3F)C(=O)NCC4)c(N)nc2F)c1F [Example I-246, 6-(3-amino-6-(3-((ethyl(methyl)amino)methyl)-2-fluoro-4-morpholinophenyl)-5-fluoropyrazin-2-yl)-7-fluoro-3,4-dihydroisoquinolin-1(2H)-one]
14 | 0.1 to 10 | Cc1cc(-c2nc(-c3ccc4c(c3)CCNC4=O)c(N)nc2F)cc2c1CCN(C)C2 [Example I-294, 6-(3-amino-6-(2,5-dimethyl-1,2,3,4-tetrahydroisoquinolin-7-yl)-5-fluoropyrazin-2-yl)-3,4-dihydroisoquinolin-1(2H)-one]
15 | 11 to 100 | CN(C)Cc1cc(-c2nc(-c3cc4c(cc3F)C(=O)NCC4)c(N)nc2F)ccc1F [Example I-273, 6-(3-amino-6-(3-((dimethylamino)methyl)-4-fluorophenyl)-5-fluoropyrazin-2-yl)-7-fluoro-3,4-dihydroisoquinolin-1(2H)-one]
16 | 11 to 100 | CN(C)Cc1cccc(-c2nc(-c3ccc4c(=O)[nH]cc(F)c4c3)c(N)nc2F)c1 [Example I-281, 6-(3-amino-6-(3-((dimethylamino)methyl)phenyl)-5-fluoropyrazin-2-yl)-4-fluoroisoquinolin-1(2H)-one]
17 | 11 to 100 | CN(C)[C@@H]1COc2ccc(-c3nc(-c4cc(F)c5c(c4)CCNC5=O)c(N)nc3F)cc21 [Example I-254, (S)-6-(3-amino-6-(3-(dimethylamino)-2,3-dihydrobenzofuran-5-yl)-5-fluoropyrazin-2-yl)-8-fluoro-3,4-dihydroisoquinolin-1(2H)-one]
18 | 0.1 to 10 | Cc1c[nH]c(=O)c2cc(F)c(-c3nc(-c4ccc(C5CCOCC5)c(CN(C)C)c4)c(F)nc3N)cc12 [Example I-235, 6-(3-amino-6-(3-((dimethylamino)methyl)-4-(tetrahydro-2H-pyran-4-yl)phenyl)-5-fluoropyrazin-2-yl)-7-fluoro-4-methylisoquinolin-1(2H)-one]
19 | 11 to 100 | CCN(C)Cc1c(N2CCOCC2)ccc(-c2nc(-c3ccc4c(c3)CCNC4=O)c(N)nc2F)c1F [Example I-248, 6-(3-amino-6-(3-((ethyl(methyl)amino)methyl)-2-fluoro-4-morpholinophenyl)-5-fluoropyrazin-2-yl)-3,4-dihydroisoquinolin-1(2H)-one]
20 | 101 to 1000 | CN(C)Cc1cc(-c2nc(-c3cc(F)c4c(c3)CCNC4=O)c(N)nc2F)ccc1F [Example I-274, 6-(3-amino-6-(3-((dimethylamino)methyl)-4-fluorophenyl)-5-fluoropyrazin-2-yl)-8-fluoro-3,4-dihydroisoquinolin-1(2H)-one]
21 | 11 to 100 | Cc1c[nH]c(=O)c2ccc(-c3nc(-c4ccc(O)c(CN(C)C)c4)c(F)nc3N)cc12 [Example I-306, 6-(3-amino-6-(3-((dimethylamino)methyl)-4-hydroxyphenyl)-5-fluoropyrazin-2-yl)-4-methylisoquinolin-1(2H)-one]

Source: patent US20240425479A1, “HALO-SUBSTITUTED AMINO AZA-HETEROARYL COMPOUNDS AS INHIBITORS OF THE HAEMATOPOIETIC PROGENITOR KINASE 1 (HPK1)” (priority 2021, published 2024)
